Like-named read-outs stand apart in the source and are kept apart here.
What was measured:
[1] = Tissue distribution of lorlatinib in mice after oral administration (LC-MS/MS); format: in vivo, Kun Ming mice; conditions: 10 mg/kg; for concentration at 0.5 h: Kun Ming, mouse
Procedure: (§1) All the animal-related experiments were performed in accordance with guidelines of Institutional Experimental Animal Ethical Committee. Kun Ming mice (18–20 g) were obtained from the Beijing HFK Bioscience Co., Ltd. (Beijing, China). All mice were given free access to normal diet and water during the experiment with an exception that mice were fasted for 12 h prior to drug administration.
Tissue samples were weighed, and methanol was added to tissue samples at a ratio of methanol: tissue = 2 mL: 100 mg. Subsequently, tissue samples were homogenized using a high-throughput tissue homogenizer and vortex-mixed for 3 min. Supernatant was obtained by centrifuging at 11,000 rpm for 15 min. Then, 400 μL of 40 ng/mL IS solution was added to 100 μL supernatant. After vortex-mixing, supernatant was isolated by centrifugation.
(§2) The mice were orally administered with 10 mg/kg lorlatinib. Blood and tissue samples were collected from mice at 0.5, 1, 2, 4, 8, and 24 h after administration. The blood samples were transferred into glass containers and clotted at room temperature for 1 h. Once the clot was formed, blood sample was centrifuged at 4,000 rpm for 10 min, and supernatant was collected. The serum was transferred into another tube and stored at −80°C prior to further analysis. Tissue samples were rinsed by physiological saline, and then excess physiological saline was blotted up. The tissue samples were transferred into PP plastic bags and stored at −80°C until further detection.
(§3) The pharmacokinetic parameters of lorlatinib were estimated with noncompartment model by DAS (Data Analysis System) software (version 3.0, BioGuider Co., Shanghai, China). Moment analysis was used as a noncompartmental approach to obtain various pharmacokinetic parameters. Noncompartmental approach allowed the estimation of pharmacokinetic parameters without assuming any structural properties of the pharmacokinetic behavior of lorlatinib. The area under the curve (AUC) and the first moment curve (AUMC) were calculated by using the linear trapezoidal method, which is required by FDA. The half-life (t1/2) was estimated as MRT multiplied by 0.693. Cmax was defined as maximal concentration, and Tmax was defined as the time at which the Cmax was observed. The tissue distribution was described by quantifying lorlatinib in various tissues at 0.5, 1, 2, 4, 8, and 24 h after administration. All data were summarized to calculate means and standard deviations, and then the concentration-time curve was plotted.

[2] = Pharmacokinetic study of lorlatinib in mouse serum after oral administration (LC-MS/MS, noncompartmental model); format: in vivo, Kun Ming mice; conditions: mice, 10 mg/kg
Procedure: as §1
In order to make all serum samples fall within the range suitable for testing, 10 μL of serum sample was diluted to 100 μL with blank serum. The diluted serum sample was evenly mixed using vortex-mixing. A mixture sample was prepared by adding 200 μL of IS working solution (10 ng/mL) to 20 μL of diluted serum sample, and the mixture was vortex-mixed for 3 min. In order to extract lorlatinib, the supernatant was obtained by centrifugation (11,000 rpm, 15 min, 4°C). Then, 100 μL of supernatant was diluted to 200 μL with purified water, and the mixture was immediately vortex-mixed for 3 min.
as §2, §3

SMILES: C[C@H]1Oc2cc(cnc2N)-c2c(nn(C)c2C#N)CN(C)C(=O)c2ccc(F)cc21 [Lorlatinib]
- time at which the maximum concentration appeared in each tissue ([1]; each tissue): 0.5 h
- concentration at 0.5 h ([1]; brain, read-out: concentration in brain): 1850 ng/g
- concentration at 0.5 h ([1]; heart, read-out: concentration in heart): 3670 ng/g
- concentration at 0.5 h ([1]; kidney, read-out: concentration in kidney): 5490 ng/g
- concentration at 0.5 h ([1]; large intestine, read-out: concentration in large intestine): 2900 ng/g
- concentration at 0.5 h ([1]; liver, read-out: concentration in liver): 31500 ng/g
- concentration at 0.5 h ([1]; lung, read-out: concentration in lung): 3090 ng/g
- concentration at 0.5 h ([1]; small intestine, read-out: concentration in small intestine): 5410 ng/g
- concentration at 0.5 h ([1]; spleen, read-out: concentration in spleen): 2470 ng/g
- concentration at 0.5 h ([1]; stomach, read-out: concentration in stomach): 21600 ng/g
- concentration at 24 h ([2]; Kun Ming, mouse, 24 h after administration): 20.9 ± 1.07 ng/mL
- Cmax ([2]; Kun Ming, mouse, n=8, mean): 2710 ng/mL
- Tmax ([2]; Kun Ming, mouse, n=8, mean): 37.5 min
- half-life ([2]; Kun Ming, mouse, n=8, mean, read-out: t1/2z (converted)): 196 min
- maximal serum concentration ([2]; mean ± SD): 2,705.683 ± 539.779 μg/L
- AUC(0–∞) ([2]; n=8, mean): 16208.177 ug/L ∗ h
- AUMC(0–∞) ([2]; n=8, mean): 78840.738 h ∗ h ∗ ug/L
